Read-outs that look alike come from different tables or passages of the source.

One experiment has as its system SDMA. As to the kind of experiment: SDMA inhibition assay in Z-138 cells (ELISA with anti-SDMA antibody). The experiment is classed as cell-based. Conditions: Homo sapiens, Z-138, 48 h, 48 h treatment. The protocol:
Z-138 cells (ATCC, CRL-3001™) were seeded at a density of 1 million cells/well in transparent, flat bottomed tissue culture grade 48-well plates. Cells were treated with various concentration of test compounds for a period of 48 h. Cell lysate was prepared using 1× CST Lysis buffer (Cell Signaling Technology, USA) and 500 ng/well/50 μL of lysate in pH 9.6 carbonate buffer was coated on 96-well Maxisorb plate and incubated overnight at 4° C. The plate was washed twice in 1×PBS containing 0.05% Tween 20 and blocked in 1% BSA for 1 h at ambient temperature. Further, the plate was incubated first with primary antibody (anti-SDMA antibody; CST #13222s) at ambient temperature for 2 h and then with HRP-conjugated secondary antibody at ambient temperature for 1 h with 2 intermittent washing steps in between.
For luminiscence based detection, HRP substrates (substrate A+substrate B in a 1:1 proportion) were added followed by luminiscence reading after 30 min in Synergy™ 2 reader (Biotek, USA).
For absorbance based detection, TMB substrate was added followed by addition of STOP solution (2N H2SO4) post colour development and absorbance (excitation 450 nm and emission 540 nm) was measured in Synergy™ 2 reader (Biotek, USA).
% inhibition of SDMA was calculated relative to the vehicle control samples containing media with 0.1% DMSO alone as per the formula below. (Avg. of Untreated Control−Avg. of Test)×100 Avg. Of Untreated Control
The IC50 values of individual compounds were calculated with Non Linear Regression Analysis using Graph Pad Prism (Graph Pad software, Inc, USA).
For orientation: ELISA stands for enzyme-linked immunosorbent assay.

Another experiment deals with Z-138 cells. As to the kind of experiment: Anti-cancer assay (Z-138), cell viability by CellTiterGlo. The experiment is classed as cell-based. The settings on record: Homo sapiens, 96 h treatment, read-out: IC50 (activity range), inhibition of cell viability. The protocol: Z-138 cells were seeded at a density of 2000-3000 cells per well in culture media (IMDM+10% FBS). PANC-1 (ATCC, CRL-1469™) and MIA PaCa-2 (ATCC, CRL-1420™) cells were seeded at a density of 200-300 cells per well in culture media (DMEM+10% FBS). Cells were seeded in opaque, flat bottomed tissue culture grade 96-well plates and Z-138 cells (suspension) were seeded and treated on the same day with various concentrations of test compounds. PANC-1 and MIA PaCa-2 cells, being adherent, were kept for overnight settlement at standard cell culture conditions (37° C., 5% CO2). On the following day, cells were treated with various concentrations of test compounds. Cells were treated with test compounds for a period of 96 h, 7 days and 10 days, for Z-138 cells, PANC-1 cells and MIA PaCa-2 cells, respectively. Cell viability was assessed using CellTiterGlo™ (Promega, USA) as per manufacturer's instructions. Relative Light Units (RLU) were read in Synergy™ 2 reader (Biotek, USA). The assay measures cellular ATP as an indicator of cell viability. RLU is proportional to the number of viable cells in the respective well. % inhibition of cell viability was calculated relative to the vehicle control samples containing media with 0.1% DMSO alone as per the formula below. (Avg. of Untreated Control−Avg. of Test)×100 Avg. Of Untreated Control
The IC50 values of individual compounds were calculated with Non Linear Regression Analysis using Graph Pad Prism (Graph Pad software, Inc, USA). • Anti-Cancer Assay (Z-138)
On the technique in general: ATP-based viability assays read luminescence as a measure of living cells.

For the next experiment, the target named is PRMT5:MEP50 (Homo sapiens, UniProt O14744). As to the kind of experiment: PRMT5 biochemical assay (HTRF, biotinylated H4R3 substrate), protocols 1 and 2. The settings on record: 1 μM SAM, 50 nM biotinylated H4R3, protocol 1 or 2 not given, read-out: IC50 (activity range), inhibition of PRMT5. The protocol: (§1) Inhibitory effect of compounds on PRMT5 was assessed using HTRF detection technology in biochemical assay. Biotinylated H4R3 (residues 1-21) was used as a substrate. Compounds were pre-incubated with 15-25 ng PRMT5:MEP50 per well of a 384-well plate for 30 min at room temperature in the assay buffer containing 20 mM Bicine, pH 7.6, 25 mM NaCl, 2 mM DTT, 0.01% Chicken albumin and 0.01% Tween-20. Reaction was initiated by adding 1 μM of SAM and 50 nM biotinylated H4R3. Total assay volume was 15 μL. Reaction was continued for 120 min at room temperature. Then detection solution containing Streptavidin-Eu cryptate, anti-rabbit IgG-XL-665, Histone H4R3 Dimethyl Symmetric (H4R3me2s) Polyclonal Antibody, all prepared in HTRF detection buffer was added and further incubated for 30 min at room temperature. HTRF signal was recorded in PHERAStar microplate reader. Ratio of signal obtained at 665 nm and 620 nm was used to compute the percent inhibition of compound as follows % Inhibition=100−((Test Ratio−Negative control Ratio)/(Positive control Ratio−Negative control Ratio)*100) where Positive control=PRMT5+SAM+H4R3 Negative control=PRMT5+H4R3 Biochemical Assay Protocol 2
PRMT5:MEP50, sequence (O14744 whole entry, the tested form may be a part): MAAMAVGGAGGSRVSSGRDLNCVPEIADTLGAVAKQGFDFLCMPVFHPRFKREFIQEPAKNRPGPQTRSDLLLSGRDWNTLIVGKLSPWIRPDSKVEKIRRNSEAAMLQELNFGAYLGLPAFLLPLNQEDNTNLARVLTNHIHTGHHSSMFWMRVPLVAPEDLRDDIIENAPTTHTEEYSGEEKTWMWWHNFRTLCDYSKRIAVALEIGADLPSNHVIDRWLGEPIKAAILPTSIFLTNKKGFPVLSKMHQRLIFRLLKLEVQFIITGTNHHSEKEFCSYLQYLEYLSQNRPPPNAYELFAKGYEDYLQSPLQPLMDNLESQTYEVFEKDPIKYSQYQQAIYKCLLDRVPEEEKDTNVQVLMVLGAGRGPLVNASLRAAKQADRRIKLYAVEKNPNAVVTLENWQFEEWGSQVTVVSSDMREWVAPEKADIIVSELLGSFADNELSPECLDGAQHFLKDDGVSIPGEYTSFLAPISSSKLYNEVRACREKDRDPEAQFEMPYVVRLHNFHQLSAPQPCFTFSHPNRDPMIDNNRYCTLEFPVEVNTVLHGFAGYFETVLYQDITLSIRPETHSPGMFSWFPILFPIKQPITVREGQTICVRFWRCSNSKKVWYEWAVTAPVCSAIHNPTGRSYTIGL
PRMT5:MEP50, sequence (Q9BQA1 whole entry partner, the tested form may be a part): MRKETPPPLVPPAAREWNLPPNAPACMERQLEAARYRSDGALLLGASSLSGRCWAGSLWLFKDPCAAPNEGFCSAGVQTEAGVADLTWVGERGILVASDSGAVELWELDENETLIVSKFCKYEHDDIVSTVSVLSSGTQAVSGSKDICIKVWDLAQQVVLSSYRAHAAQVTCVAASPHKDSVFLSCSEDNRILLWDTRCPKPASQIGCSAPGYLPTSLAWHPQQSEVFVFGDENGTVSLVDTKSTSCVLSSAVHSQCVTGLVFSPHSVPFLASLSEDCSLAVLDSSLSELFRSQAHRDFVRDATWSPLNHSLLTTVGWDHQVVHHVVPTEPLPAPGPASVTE
as §1, with “2.5” for “15-25”, “4 h” for “120 min”, “control=PRMT5+H4R3” for “control=PRMT5+H4R3 Biochemical Assay Protocol 2”

Where [1] appears, read: read-out: IC50 (activity range), SDMA inhibition.
The mark [2] stands for this setting: range with mixed units pM/nM, units kept in the value.

As a reminder, the IC50 is the point on the concentration scale where inhibition reaches its midpoint. With `CC1CNCc2c(CCC3=C[C@@H](n4ccc5c(N)ncnc54)[C@H](O)[C@@H]3O)cc(C(F)F)c(F)c21` (single isomer, unassigned) [Compound 22A], the half-inhibitory concentration (IC50) with SDMA (setting [1]) is 1100 to 50000 pM; in the experiment on Z-138 cells, above 1000 pM; on PRMT5:MEP50, 0.25 to 0.95 nM.
In the case of `CC1CNCc2c(CCC3=C[C@@H](n4ccc5c(N)ncnc54)[C@H](O)[C@@H]3O)cc(C(F)F)c(F)c21` (single isomer, unassigned) [Compound 22B], in the experiment on SDMA (setting [2]), the IC50 was in the range of 100 to 1000 pM.
Turning to `CC1Cc2c(F)c(C(F)F)cc(CCC3=C[C@@H](n4ccc5c(N)ncnc54)[C@H](O)[C@@H]3O)c2CN1` (single isomer, unassigned) [Compound 23A], the IC50 in the experiment with SDMA (setting [2]) was 100 to 1000 pM; at PRMT5:MEP50, 0.25 to 0.95 nM.
As for `CC1Cc2c(F)c(C(F)F)cc(CCC3=C[C@@H](n4ccc5c(N)ncnc54)[C@H](O)[C@@H]3O)c2CN1` (single isomer, unassigned) [Compound 23B], the IC50 in the experiment with SDMA (setting [1]) is 1100 to 50000 pM; in the experiment on Z-138 cells, above 1000 pM.
Take `Nc1nc2cc(CCC3=C[C@@H](n4cnc5c(N)ncnc54)[C@H](O)[C@@H]3O)cc(F)c2cc1Cl` [Compound 1, (1S,2R,5R)-3-(2-(2-Amino-3-chloro-5-fluoroquinolin-7-yl)ethyl)-5-(6-amino-9H-purin-9-yl)cyclopent-3-ene-1,2-diol]: the IC50 in the experiment with SDMA (setting [2]) is 100 to 1000 pM; on PRMT5:MEP50, 0.25 to 0.95 nM.
Take `Nc1nc2cc(CCC3=C[C@@H](n4ccc5c(N)ncnc54)[C@H](O)[C@@H]3O)cnc2cc1Cl` [Compound 2, (1S,2R,5R)-3-(2-(6-Amino-7-chloro-1,5-naphthyridin-3-yl)ethyl)-5-(4-amino-7H-pyrrolo [2,3-d]pyrimidin-7-yl)cyclopent-3-ene-1,2-diol]: the IC50 with SDMA (setting [1]) was 1100 to 50000 pM; in the experiment with Z-138 cells it was above 1000 pM; on PRMT5:MEP50 it was 0.25 to 0.95 nM.
With `Nc1cnc2ccc(CCC3=C[C@@H](n4ccc5c(N)ncnc54)[C@H](O)[C@@H]3O)cc2n1` [Compound 3, (1S,2R,5R)-5-(4-Amino-7H-pyrrolo[2,3-d]pyrimidin-7-yl)-3-(2-(3-aminoquinoxalin-6-yl)ethyl)cyclopent-3-ene-1,2-diol], the results for the IC50 in the experiment with SDMA (setting [1]), in the experiment with Z-138 cells and at PRMT5:MEP50 were 1100 to 50000 pM, above 1000 pM and 0.25 to 0.95 nM, respectively.
For `Nc1cnc2ccc(CC[C@@]34C[C@@H]3[C@@H](n3ccc5c(N)ncnc53)[C@H](O)[C@@H]4O)cc2n1` [Compound 4, (1R,2R,3S,4R,5S)-4-(4-Amino-7H-pyrrolo[2,3-d]pyrimidin-7-yl)-1-(2-(3-aminoquinoxalin-6-yl)ethyl)bicyclo[3.1.0]hexane-2,3-diol], in that order: 1100 to 50000 pM, above 1000 pM and 0.25 to 0.95 nM.
For `Nc1nc2cc(CCC3=C[C@@H](n4ncc5c(N)ncnc54)[C@H](O)[C@@H]3O)cc(F)c2cc1Cl` [Compound 5, (1S,2R,5R)-5-(4-Amino-1H-pyrazolo[3,4-d]pyrimidin-1-yl)-3-(2-(2-amino-3-chloro-5-fluoroquinolin-7-yl)ethyl)cyclopent-3-ene-1,2-diol], the IC50 in the experiment on SDMA (setting [2]) is 100 to 1000 pM; with Z-138 cells (setting [2]), 101 to 1000 pM; on PRMT5:MEP50, 0.25 to 0.95 nM.
On to `Cc1nc(N)c2cnn([C@@H]3C=C(CCc4cc(F)c5cc(Cl)c(N)nc5c4)[C@@H](O)[C@H]3O)c2n1` [Compound 6, (1S,2R,5R)-3-(2-(2-amino-3-chloro-5-fluoroquinolin-7-yl)ethyl)-5-(4-amino-6-methyl-1H-pyrazolo[3,4-d]pyrimidin-1-yl)cyclopent-3-ene-1,2-diol], for which the IC50 was in the range of 1100 to 50000 pM in the experiment on SDMA (setting [1]), 101 to 1000 pM in the experiment with Z-138 cells (setting [2]) and 0.25 to 0.95 nM at PRMT5:MEP50.
Turning to `Nc1ncnc2c1ccn2[C@@H]1C=C(COc2cc(C(F)F)cc3c2CNCC3)[C@@H](O)[C@H]1O` [Compound 7, (1S,2R,5R)-5-(4-amino-7H-pyrrolo[2,3-d]pyrimidin-7-yl)-3-(((6-(difluoromethyl)-1,2,3,4-tetrahydroisoquinolin-8-yl)oxy)methyl)cyclopent-3-ene-1,2-diol], the 50% inhibitory concentration (IC50) is 1100 to 50000 pM in the experiment on SDMA (setting [1]), above 1000 pM in the experiment with Z-138 cells and 0.25 to 0.95 nM on PRMT5:MEP50.
In the case of `Nc1ccn([C@@H]2C=C(COc3cc(F)c4cc(Cl)c(N)nc4c3)[C@@H](O)[C@H]2O)c(=O)n1` [Compound 16, 4-Amino-1-((1R,4R,5S)-3-(((2-amino-3-chloro-5-fluoroquinolin-7-yl)oxy)methyl)-4,5-dihydroxycyclopent-2-en-1-yl)pyrimidin-2 (1H)-one], on PRMT5:MEP50, the IC50 fell in the range of 0.25 to 0.95 nM.
As for `Nc1nc2cc(CCC3=C[C@@H](n4ccc5c4ncn4ccnc54)[C@H](O)[C@@H]3O)cc(F)c2cc1Cl` [Compound 27, (1S,2R,5R)-3-(2-(2-Amino-3-chloro-5-fluoroquinolin-7-yl)ethyl)-5-(7H-imidazo[1,2-c]pyrrolo[3,2-e]pyrimidin-7-yl)cyclopent-3-ene-1,2-diol], the results for the 50% inhibitory concentration (IC50) in the experiment with Z-138 cells and on PRMT5:MEP50 were above 1000 pM and above 0.95 nM, respectively.
For `Nc1nc2cc(CCC3=C[C@@H](n4ccc5cn6ccnc6nc54)[C@H](O)[C@@H]3O)ccc2cc1Cl` [Compound 28, (1S,2R,5R)-3-(2-(2-Amino-3-chloroquinolin-7-yl)ethyl)-5-(8H-imidazo[1,2-a]pyrrolo[2,3-d]pyrimidin-8-yl)cyclopent-3-ene-1,2-diol], the IC50 was above 1000 pM in the experiment on Z-138 cells and above 0.95 nM on PRMT5:MEP50.
In the case of `Nc1nc2cc(CCC3=C[C@@H](n4ncc5c4ncn4ccnc54)[C@H](O)[C@@H]3O)cc(F)c2cc1Cl` [Compound 29, (1S,2R,5R)-3-(2-(2-Amino-3-chloro-5-fluoroquinolin-7-yl)ethyl)-5-(7H-imidazo[1,2-c]pyrazolo[4,3-e]pyrimidin-7-yl)cyclopent-3-ene-1,2-diol], the IC50 at PRMT5:MEP50 was above 0.95 nM.
As for `CONc1ncnc2c1ccn2[C@@H]1C=C(CCc2cc(F)c3cc(Cl)c(N)nc3c2)[C@@H](O)[C@H]1O` [Compound 30, (1S,2R,5R)-3-(2-(2-Amino-3-chloro-5-fluoroquinolin-7-yl)ethyl)-5-(4-(methoxyamino)-7H-pyrrolo[2,3-d]pyrimidin-7-yl)cyclopent-3-ene-1,2-diol], the IC50 in the experiment with SDMA (setting [2]) was 100 to 1000 pM; at PRMT5:MEP50 it was 0.25 to 0.95 nM.

The values are drawn from US12391695B2, “PRMT5 inhibitors” (Lupin Limited, priority 2019, dated 2025).
